These results are taken from patent publication US20240277829A1, “HIV-1 VACCINATION AND SAMT-247 MICROBICIDE TO PREVENT HIV-1 INFECTION” (priority 2021, published 2024).

Experiment [1] deals with NKG2A^+ NK cells. In words: Intracellular cytokines of human blood NK cells using SAMT-247 and PMA stimulation with or without zinc chelator. In kind it is cell-based. The conditions noted are these: human PBMCs. As to the method:
Intracellular cytokines of Human blood NK cells using SAMT-247 and PMA stimulation with or without zinc chelator. The levels of NKG2A^+ NK cells were measured in blood of healthy humans. Human PBMCs were thawed and cultured in R10 in the presence or absence of SAMT-247 and/or PMA for 12 hours. Cells were incubated with or without Zinc chelator TPEN (cat. #P4413-100 MG, 5 μM) for 12 h. Subsequently, PBMCs were surface stained with the following: BUV737 anti-CD3 (SP34-2; cat. #741872, 5 μl), Alexa700 anti-CD20 (2H7; cat. #560631, 5 μl), BV786 anti-CD45 (HI30; cat. #563716, 5 μl) from BD Biosciences; APC-H7 anti-CD11b (ICRF44; cat. #47-0118-42, 5 μl) from eBioscience and PE-Cy7 anti-NKG2A (Z199; cat. #B10246, 5 μl) from Beckman coulter for 30 minutes at room temperature. This was followed by permeabilization with FOX3-transcription buffer set (cat. #00-5523-00) from eBioscience according to the manufacture's recommendation and subsequently intracellular staining with the following: BV750 anti-TNF-α (MAB11; cat. #566359, 5 μl), BUV396 anti-IFN-γ (B27; cat. #563563, 5 μl), BV510 anti-GranB (GB11; cat. #563388, 5 μl) from BD Biosciences; and FITC anti-Perforin (pf-344; cat. #3465-7, 5 μl) from MABTECH for 30 minutes at room temperature. Flow cytometry acquisitions were performed on a FACSymphony A5 and examined using FACSDIVA™ software (BD Biosciences).

Experiment [2] deals with mucosal Th1 and Th2 cells. Put plainly: Frequencies and cytokine levels of macaque rectal mucosal T cells following SAMT-247 and PMA stimulation. The conditions noted are these: following PMA stimulation. In kind it is cell-based. An excerpt: Additionally, rectal tissue from 9 macaques was used for an in vitro study. The age-matched macaques from this separate study (P204) included 4 animals vaccinated against HIV and 5 naïve animals, all challenged with SHIV. Rectal tissue was obtained post challenge from 7 infected and 2 uninfected animals for the P204 study analysis. Extra cells were available from that collection and were used here for the in vitro study.
Frequencies and cytokine levels of macaque rectal mucosal NK cells and T cells following SAMT-247 and PMA stimulation. NK/ILC and T cell frequencies and cytokine levels were measured in macaque rectal mucosa. Freshly collected rectal biopsies were processed to single cells and cultured in R10 in the presence/or absence of SAMT-247 and/or PMA for 12 hours. Subsequently, cells were stained for live cells with Live/Dead Blue dye (cat. #L34962, 0.5 μl) from Thermofisher; followed by surface staining with the following: BUV737 anti-CD3 (SP34-2; cat. #741872, 5 μl), BV711 anti-CD4 (L200; cat. #563913, 5 μl), BV650 anti-NKp44 (P44-8; cat. #744302, 5 μl), Alexa700 anti-CD20 (2H7; cat. #560631, 5 μl), BV786 anti-CD45 (D058-1283; cat. #563861, 5 μl) from BD Biosciences; APC-H7 anti-CD11b (ICRF44; cat. #47-0118-42, 5 μl), PE-Cy5 anti-CD95 (ICRF44; cat. #15-0959-42, 5 μl) from eBioscience; BV570 anti-CD8 (RPA-T8; cat. #301038, 5 μl), BV605 anti-CCR6 (G034E3; cat. #353420, 5 μl), APC anti-CXCR3 (G025H7; cat. #353708, 5 μl), from Biolegend and PE-Cy7 anti-NKG2A (Z199; cat. #B10246, 5 μl) from Beckman coulter for 30 minutes at room temperature. This was followed by permeabilization with a FOX3-transcription buffer set (cat. #00-5523-00) from eBioscience according to the manufacture's recommendation and subsequently intracellular staining with the following: BV750 anti-TNF-α (MAB11; cat. #566359, 5 μl), BUV395 anti-IFN-γ (B27; cat. #563563, 5 μl), BV510 anti-GranB (GB11; cat. #563388, 5 μl), BV421 anti-IL-10 (JES3-9D7; cat. #564053, 5 μl) from BD Biosciences; PE-Cy5.5 anti-IL-17 (BL168; cat. #512314, 5 μl) from Biolegend; and FITC anti-Perforin (pf-344; cat. #3465-7, 5 μl) from MABTECH for 30 minutes at room temperature. Flow cytometry acquisitions were performed on a FACSymphony A5 and examined using FACSDiva software (BD Biosciences).

`CC(=O)Sc1ccccc1C(=O)NCCC(N)=O` [SAMT-247]: the “expression of granzyme, perforin, or cytokines” value in experiment [1] (absence of PMA stimulation) is listed as “did not affect”. In experiment [1] (presence of PMA), the “percentage of IFN-γ and TNF-α producing NKG2A^+ cells” value is “decreased”; the “percentage of NKG2A^+ NK cells expressing granzyme B and perforin” value is recorded as “increased”. In experiment [2], the “IL-10 production in mucosal Th1 cells” value was “increase”; the “TNF-α production in mucosal Th1 and Th2 cells” value is given as “significant decrease”.
